Measurements from patent publication US6277854A, “Tricyclic antitumor farnesyl protein transferase inhibitors” (Schering Corporation, priority 1999, dated 2001).
pIC50: −log10 of the molar value.

The compounds below were run against farnesyl protein transferase (assay: In vitro enzyme assay: inhibition of farnesyl protein transferase (FPT), [3H]farnesyl transfer to Ras-CVLS). Details: not given.
Format: biochemical, rat (brain); human (expressed in E. coli)
Source text: 1. In vitro enzyme assays: Inhibition of famesyl protein transferase and geranylgeranyl protein transferase.
Farnesyl protein transferase (FPT) was partially purified from rat brain by ammonium sulfate fractionation followed by Q-Sepharose (Pharmacia, Inc.) anion exchange chromatography essentially as described by Yokoyama et al (Yokoyama, K., et al., (1991), A protein geranylgeranyltransferase from bovine brain: Implications for protein prenylation specificity, Proc. Natl. Acad. Sci USA 88: 5302-5306, the disclosure of which is incorporated herein by reference thereto). Human famesyl protein transferase was also expressed in E. coli, using cDNA clones encoding both the a and b subunits. The methods used were similar to those published (Omer, C. et al., (1993), Characterization of recombinant human famesyl protein transferase: Cloning, expression, farnesyl diphosphate binding, and functional homology with yeast prenyl-protein transferases, Biochemistry 32:5167-5176). Human famesyl protein transferase was partially-purified from the soluble protein fraction of E. coli as described above. […] Two forms of val^12 -Ha-Ras protein were prepared as substrates for these enzymes, differing in their carboxy terminal sequence. One form terminated in cysteine-valine-leucine-serine (Ras-CVLS) the other in cystein-valine-leucine-leucine (Ras-CVLL). Ras-CVLS is a substrate for the famesyl protein transferase while Ras-CVLL is a substrate for geranylgeranyl protein transferase I. The cDNAs encoding these proteins were constructed so that the proteins contain an amino-terminal extension of 6 histidine residues. Both proteins were expressed in Escherichia coli and purified using metal chelate affinity chromatography. The radiolabelled isoprenyl pyrophosphate substrates, [^3 H]farnesyl pyrophosphate and [^3 H]geranylgeranyl pyrophosphate, were purchased from DuPon/New England Nuclear.
Several methods for measuring farnesyl protein transferase activity have been described (Reiss et al 1990, Cell 62: 81; Schaber et al 1990, J. Biol. Chem. 265: 14701; Manne et al 1990, PNAS 87: 7541; and Barbacid & Manne 1993, U.S. Pat. No. 5,185,248). […] The reaction was allowed to proceed for 30 minutes at room temperature and then stopped with 0.5 ml of 4% sodium dodecyl sulfate (SDS) followed by 0.5 ml of cold 30% TCA. Samples were allowed to sit on ice for 45 minutes and precipitated Ras protein was then collected on GF/C filter paper mats using a Brandel cell harvester. Filter mats were washed once with 6% TCA, 2% SDS and radioactivity was measured in a Wallac 1204 Betaplate BS liquid scintillation counter. Percent inhibition was calculated relative to the DMSO vehicle control.
`O=C(NCCCC(=O)N1CCC(C2c3ncc(Br)cc3CCc3cc(Cl)cc(Cl)c32)CC1)Nc1ccccc1` (single isomer, unassigned) [Example 16] showed a pIC50 of less than 7.00. Work on `O=C(CCN1C(=O)CCC1=O)N1CCC(C2c3ncc(Br)cc3CCc3cc(Cl)cc(Cl)c32)CC1` (single isomer, unassigned) [Example 11] yielded a pIC50 of 7.12. For `NC(=O)CCC(=O)N1CCC(C2c3ncc(Br)cc3CCc3cc(Cl)cc(Cl)c32)CC1` (single isomer, unassigned) [Example 12], the pIC50 was 7.21. `NC(=O)N1CCC(C2c3ncc(Br)cc3CCc3cc(Cl)cc(Cl)c32)CC1` (single isomer, unassigned; (+)) [Example 1, (+)-4-(3-BROMO-8,10-DICHLORO-6,11-DIHYDRO-5H-BENZO[5,6]-CYCLOHEPTA[1 ,2-b]PYRIDIN-11-YL)-1-PIPERIDINE CARBOXAMIDE] showed a pIC50 of 6.41. In the case of `NC(=O)CCCCC(=O)N1CCC([C@H]2c3ncc(Br)cc3CCc3cc(Cl)cc(Br)c32)CC1` [Example 56, (+)-4-(3,10-DIBROMO-8-CHLORO-6,11-DIHYDRO-5H-BENZO[5,6]CYCLO-HEPTA[1,2-b]PYRIDIN-11(R)-YL)-EPSILON-OXO-1-PIPERIDININE HEXANAMIDE], the pIC50 was 8.15. `CN(C)C(=O)CCC(=O)N1CCC(C2c3ncc(Br)cc3CCc3cc(Cl)cc(Cl)c32)CC1` (single isomer, unassigned) [Example 13] was tested, and the pIC50 was 7.82. `COC(=O)CCCC(=O)N1CCC([C@H]2c3ncc(Br)cc3CCc3cc(Cl)cc(Br)c32)CC1` [Example 51, (+)-METHYL 4-(3,10-DIBROMO-8-CHLORO-6,11-DIHYDRO-5H-BENZO[5,6]CYCLO-HEPTA[1,2-b]PYRIDIN-11 (R)-YL)-DELTA-OXO-1-PIPERIDININE PENTANOATE] showed a pIC50 of 7.72. Work on `CCOC(=O)CC(=O)N1CCC([C@H]2c3ncc(Br)cc3CCc3cc(Cl)cc(Br)c32)CC1` [Example 45, (+)-ETHYL 4-(3,10-DIBROMO-8-CHLORO-6,11-DIHYDRO-5H-BENZO[5,6]CYCLO-HEPTA[1,2-b]PYRIDIN-11(R)-YL)-BETA-OXO-1-PIPERIDININE PROPANOATE] yielded a pIC50 of 7.55. With `O=C(CN1CCCC1=O)N1CCC(C2c3ncc(Br)cc3CCc3cc(Cl)cc(Cl)c32)CC1` (single isomer, unassigned) [Example 10] the pIC50 was 7.72. Compound `O=C(O)CCC(=O)N1CCC([C@H]2c3ncc(Br)cc3CCc3cc(Cl)cc(Br)c32)CC1` [Example 49, (+)-SODIUM 4-(3,10-DIBROMO-B-CHLORO-6,11-DIHYDRO-5H-BENZO[5,6]CYCLO-HEPTA[1,2-b]PYRIDIN-11(R)-YL)-GAMMA-OXO-1-PIPERIDININE BUTANOATE] has a pIC50 of 6.57. With `O=C(CCCCCN1C(=O)C=CC1=O)N1CCC(C2c3ncc(Br)cc3CCc3cc(Cl)cc(Cl)c32)CC1` (single isomer, unassigned) [Example 23] the pIC50 was 6.21. Compound `NCC(=O)N1CCC(C2c3ncc(Br)cc3CCc3cc(Cl)cc(Cl)c32)CC1` (single isomer, unassigned; (+)) [Example 3, (+)-1-(AMINOACETYL)-4-(3-BROMO-8,10-DICHLORO-6,11-DIHYDRO-5H-BENZO[5,6]CYCLO-HEPTA[1,2-b]PYRIDIN-11-YL) PIPERIDINE] has a pIC50 of 5.96. In the case of `O=C(CCCC(=O)N1CCC(C2c3ncc(Br)cc3CCc3cc(Cl)cc(Cl)c32)CC1)Nc1cccnc1` (stereo not drawn) [Example 17], the pIC50 was roughly 7.00. For `NC(=O)CCC(=O)N1CCC([C@H]2c3ncc(Br)cc3CCc3cc(Cl)cc(Br)c32)CC1` [Example 50, (+)-4-(3,10-DIBROMO-8-CHLORO-6,11-DIHYDRO-5H-BENZO[5,6]CYCLO-HEPTA[1,2-b]PYRIDIN-11(R)-YL)-GAMMA-OXO -1-PIPERIDININE BUTANAMIDE], the pIC50 was 7.85. `NCCCC(=O)N1CCC(C2c3ncc(Br)cc3CCc3cc(Cl)cc(Cl)c32)CC1` (single isomer, unassigned; (+)) [Example 27, (+)-1-(4-AMINO-1-OXOBUTYL)-4-(3-BROMO-8,10-DICHLORO-6,11-DIHYDRO-5H-BENZO[5,6]CYCLO-HEPTA[1,2-b]PYRIDIN-11-YL) PIPERIDINE] gave a pIC50 of 6.89. For `O=C(O)CCCC(=O)N1CCC([C@H]2c3ncc(Br)cc3CCc3cc(Cl)cc(Br)c32)CC1` [Example 52, (+)-SODIUM 4-(3,10-DIBROMO-8-CHLORO-6,11-DIHYDRO-5H-BENZO[5,6]CYCLO-HEPTA[1,2-b]PYRIDIN-11(R)-YL)-DELTA-OXO-1-PIPERIDININE PENTANOATE], the pIC50 was 7.36. For `NC(=O)CCCC(=O)N1CCC([C@H]2c3ncc(Br)cc3CCc3cc(Cl)cc(Br)c32)CC1` [Example 53, (+)-4-(3,10-DIBROMO-8-CHLORO-6,11-DIHYDRO-5H-BENZO[5,6]CYCLO-HEPTA[1,2-b]PYRIDIN-11(R)-YL)-DELTA-OXO-1-PIPERIDININE PENTANAMIDE], the pIC50 was 8.00. `CCN(CC)CCC(=O)N1CCC(C2c3ncc(Br)cc3CCc3cc(Cl)cc(Cl)c32)CC1` (single isomer, unassigned) [Example 8] was tested, and the pIC50 was 7.85. `O=C(O)CCCCC(=O)N1CCC([C@H]2c3ncc(Br)cc3CCc3cc(Cl)cc(Br)c32)CC1` [Example 55, (+)-SODIUM 4-(3,10-DIBROMO-8-CHLORO-6,11-DIHYDRO-5H-BENZO[5,6]CYCLO-HEPTA[1,2-b]PYRIDIN-11(R)-YL)-EPSILON-OXO-1-PIPERIDININE HEXANOATE] showed a pIC50 of 7.77. In the case of `COC(=O)CCCCCC(=O)N1CCC([C@H]2c3ncc(Br)cc3CCc3cc(Cl)cc(Br)c32)CC1` [Example 57, (+)-METHYL 4-(3,10-DIBROMO-8-CHLORO-6,11-DIHYDRO-5H-BENZO[5,6]CYCLO-HEPTA[1,2-b]PYRIDIN-11(R)-YL)-OMEGA-OXO-1-PIPERIDININE HEPTANOATE], the pIC50 was 7.96.

Same assay, conditions: @ 0.06 μg/μL
`O=C(CCCC(=O)N1CCC(C2c3ncc(Br)cc3CCc3cc(Cl)cc(Cl)c32)CC1)Nc1ccccc1` (single isomer, unassigned) [Example 19] gave an FPT inhibition of 21%. `O=C(NCCCCC(=O)N1CCC(C2c3ncc(Br)cc3CCc3cc(Cl)cc(Cl)c32)CC1)c1ccccc1` (stereo not drawn) [Example 22] gave an FPT inhibition of 41%. Compound `O=C(CCCC(=O)N1CCC(C2c3ncc(Br)cc3CCc3cc(Cl)cc(Cl)c32)CC1)NCc1ccccc1` (single isomer, unassigned) [Example 21] has an FPT inhibition of 35%.

Same assay, conditions: @ 88 nM
Compound `O=C(CCCN1C(=O)c2ccccc2C1=O)N1CCC(C2c3ncc(Br)cc3CCc3cc(Cl)cc(Br)c32)CC1` (single isomer, unassigned; (+)) [Example 32, (+)-4-(3,10-DIBROMO-8-CHLORO-6,11-DIHYDRO-5H-BENZO[5,6]CYCLO-HEPTA[1,2-b]PYRIDIN-11-YL)-1-[4-(1,3-DIHYDRO-1,3-DIOXO-2H-ISOINDOL-2-YL)-1-OXOBUTYL]PIPERIDINE] has an FPT inhibition of 12%.

Same assay, conditions: @ 92 nM
In the case of `O=C(CCCC(=O)N1CCC(C2c3ncc(Br)cc3CCc3cc(Cl)cc(Cl)c32)CC1)Nc1ccc(Cl)cc1` (single isomer, unassigned) [Example 20], the FPT inhibition was 0%.

Same assay, conditions: @ 93 nM
Work on `O=C(NCCCC(=O)N1CCC(C2c3ncc(Br)cc3CCc3cc(Cl)cc(Cl)c32)CC1)c1cccnc1` (single isomer, unassigned) [Example 18] yielded an FPT inhibition of 9%.

Same assay, conditions: @ 93.4 nM
`O=C(CCCN1C(=O)c2ccncc2C1=O)N1CCC(C2c3ncc(Br)cc3CCc3cc(Cl)cc(Cl)c32)CC1` (stereo not drawn) [Example 33, 4-(8,10-DICHLORO-3-BROMO-6,11-DIHYDRO-5H-BENZO[5,6]CYCLO-HEPTA[1,2-b]PYRIDIN-11-YL)-1-[4-(1,3-DIHYDRO-1,3-DIOXO-2H-PYRROLO-[3,4c]-PYRIDINE-2-YL)-1-OXOBUTYL]PIPERIDINE] was tested, and the FPT inhibition was 38.7%.
